{"source": "patent US9414579B2", "about": "“Systems and methods for controlling pest infestation of a woody plant” (Dow AgroSciences LLC, priority 2013, dated 2016)", "key": {"Coptotermes spp. [1]": {"system": "Coptotermes spp.", "assay": "Example II: field test on a 60 hectare oil palm plot divided into two plots, infested trees inspected monthly for 24 months", "assay_type": "in vivo", "conditions": "for Infested Trees: plot 1 (4461 trees) liquid fipronil 2.0 ml/5 L drenching, plot 2 (4432 trees) 50 g Recruit HD per affected tree; for % Infestation: cumulative results, plot 1 fipronil, plot 2 Recruit HD", "experimental": "Testing was performed to determine the effect in the field of an extruded composite member in the form of Recruit® HD, further details of which are provided in U.S. patent application Ser. No. 12/004,655, on Coptotermes spp. More particularly, a 60 hectare plot of oil palm trees was divided into two plots. The palm oil trees in each of the plots were investigated for the presence of termite activity or infestation, and the affected trees were marked accordingly. The affected trees in plot 1 were each treated with liquid fipronil (2.0 ml/5 L drenching), and the affected trees in plot 2 were each treated with a 50 g extruded composite member in the form of Recruit® HD (0.5% hexaflumuron) in a manner similar to that described above in connection with system 60. For plots 1 and 2, consumption of the extruded composite members was investigated and recorded accordingly. Post-treatment inspection of the affected trees was performed on a monthly basis for 24 months following initiation of treatment."}, "Coptotermes spp. [2]": {"system": "Coptotermes spp.", "assay": "Example I: field test on a 100 hectare oil palm plot, Quadrants A-D, infested trees inspected monthly for 24 months", "assay_type": "in vivo", "conditions": "liquid fipronil 2.5 ml/5 L drenching", "experimental": "Testing was performed to determine the effect in the field of an extruded composite member in the form of Recruit® HD, further details of which are provided in U.S. patent application Ser. No. 12/004,655, on Coptotermes spp. More particularly, a 100 hectare plot of oil palm trees was divided into four quadrants: Quadrants A, B, C and D. The palm oil trees in each of Quadrants A-D were investigated for the presence of termite activity or infestation, and the affected trees were marked accordingly. The affected trees in Quadrants A and C were each treated with liquid fipronil (2.5 ml/5 L drenching), and the affected trees in Quadrants B and D were each treated with a 50 g extruded composite member in the form of Recruit® HD (0.5% hexaflumuron) in a manner similar to that described above in connection with system 60. For Quadrants B and D, consumption of the extruded composite members was investigated and recorded accordingly. Post-treatment inspection of the affected trees was performed on a monthly basis for 24 months following initiation of treatment.\nThe results of the treatments in Quadrants A-D on a monthly basis over a 24 month period of time following initial treatment are graphically illustrated in FIG. 6."}}, "data": [{"smiles": "N#Cc1nn(-c2c(Cl)cc(C(F)(F)F)cc2Cl)c(N)c1[S+]([O-])C(F)(F)F", "note": "(stereo not drawn) [Fipronil, fipronil]", "values": [{"measurement": "Infested Trees", "setting": "Coptotermes spp. [1]; 0 months (before treatment)", "value": 100}, {"measurement": "% Infestation", "setting": "Coptotermes spp. [1]; 1 year", "value": 2.31, "unit": "%"}, {"measurement": "% Infestation", "setting": "Coptotermes spp. [1]; 2 year", "value": 1.76, "unit": "%"}, {"measurement": "Infested Trees", "setting": "Coptotermes spp. [1]; 7 months", "value": 75}, {"measurement": "Infested Trees", "setting": "Coptotermes spp. [1]; 12 months", "value": 80}, {"measurement": "Infested Trees", "setting": "Coptotermes spp. [1]; 18 months", "value": 60}, {"measurement": "Infested Trees", "setting": "Coptotermes spp. [1]; 24 months", "value": 35}, {"measurement": "% Infestation", "setting": "Coptotermes spp. [1]; Pre-Treatment", "value": 2.24, "unit": "%"}, {"measurement": "Infested Trees", "setting": "Coptotermes spp. [2]; Quadrant A (2246 trees), 0 months (before treatment)", "value": 29}, {"measurement": "Infested Trees", "setting": "Coptotermes spp. [2]; Quadrant A (2246 trees), 7 months", "value": 30}, {"measurement": "Infested Trees", "setting": "Coptotermes spp. [2]; Quadrant A (2246 trees), 12 months", "value": 29}, {"measurement": "Infested Trees", "setting": "Coptotermes spp. [2]; Quadrant A (2246 trees), 18 months", "value": 20}, {"measurement": "Infested Trees", "setting": "Coptotermes spp. [2]; Quadrant A (2246 trees), 24 months", "value": 13}, {"measurement": "Infested Trees", "setting": "Coptotermes spp. [2]; Quadrant C (2215 trees), 0 months (before treatment)", "value": 71}, {"measurement": "Infested Trees", "setting": "Coptotermes spp. [2]; Quadrant C (2215 trees), 7 months", "value": 45}, {"measurement": "Infested Trees", "setting": "Coptotermes spp. [2]; Quadrant C (2215 trees), 12 months", "value": 51}, {"measurement": "Infested Trees", "setting": "Coptotermes spp. [2]; Quadrant C (2215 trees), 18 months", "value": 40}, {"measurement": "Infested Trees", "setting": "Coptotermes spp. [2]; Quadrant C (2215 trees), 24 months", "value": 22}]}]}
